Test [1] relates to BaF3. As to the kind of experiment: Antiproliferative activity against mouse BaF3 cells harbouring VEGFR2 assessed as inhibition of cell growth measured after 3 days by celltiter-glo luminescent cell viability assay. The format is functional, cell-based. As to conditions: BaF3, 72 h. A general note: In ATP-based viability assays light output follows the ATP content of the culture.

The subject of test [2] is BaF3. As to the kind of experiment: Antiproliferative activity against wild type mouse BaF3 cells assessed as inhibition of cell growth measured after 3 days by celltiter-glo luminescent cell viability assay. Type of test: functional, cell-based. Conditions: BaF3, 72 h.
Test [3] relates to BaF3. The experiment in a line: Antiproliferative activity against mouse BaF3 cells harbouring FLT3-ITD assessed as inhibition of cell growth measured after 3 days by celltiter-glo luminescent cell viability assay. Type of test: functional, cell-based. Conditions: BaF3, 72 h.
The test system of test [4] is MOLM-13. As to the kind of experiment: Antitumor activity against human MOLM-13 xenografted in male nude mouse assessed as tumor growth inhibition at 20 mg/kg, po administered once daily for 14 days by vernier caliper method relative to control. The format is functional. Conditions: MOLM-13, 336 h, time 14 day, read-out: TGI. (Xenograft models place foreign cells or tissue in a host animal.)

In test [5] the test system is MOLM-13. As to the kind of experiment: Induction of cell cycle arrest in human MOLM-13 cells assessed as accumulation of cells at S phase at 0.1 uM incubated for 48 hrs (reference value: 41.6%). Type of test: functional.
In test [6] the test system is MOLM-13. As to the kind of experiment: Induction of cell cycle arrest in human MOLM-13 cells assessed as accumulation of cells at G1 phase at 0.1 uM incubated for 48 hrs (reference value: 40.3%). The format is functional.
The subject of test [7] is MOLM-13. As to the kind of experiment: Induction of cell cycle arrest in human MOLM-13 cells assessed as accumulation of cells at G2 phase at 0.1 uM incubated for 48 hrs (reference value: […]). The format is functional.
Test [8] has as its system MOLM-13. As to the kind of experiment: Induction of apoptosis in human MOLM-13 cells assessed as viable cells at 0.1 uM incubated for 48 hrs by Annexin V-FITC/PI staining based flow cytometry analysis (reference value: 91.9%). As to conditions: read-out: Activity. Type of test: functional. Background: A flow cytometer gives signals particle by particle.
Test [9] concerns MOLM-13. The experiment in a line: Induction of apoptosis in human MOLM-13 cells assessed as late apoptotic cells at 0.1 uM incubated for 48 hrs by Annexin V-FITC/PI staining based flow cytometry analysis (reference value: 3.10%). Type of test: functional.
Test [10] relates to MOLM-13. As to the kind of experiment: Induction of apoptosis in human MOLM-13 cells assessed as necrotic cells at 0.1 uM incubated for 48 hrs by Annexin V-FITC/PI staining based flow cytometry analysis (reference value: 0.077%). The format is functional.
Test [11] concerns MOLM-13. As to the kind of experiment: Induction of apoptosis in human MOLM-13 cells assessed as early apoptotic cells at 0.1 uM incubated for 48 hrs by Annexin V-FITC/PI staining based flow cytometry analysis (reference value: 4.93%). The format is functional.

The IC50 is the point on the concentration scale where inhibition reaches its midpoint. Consider `Cc1cc(=O)n(-c2ccc(Cl)cc2)nc1C(=O)Nc1ccc(Oc2ccnc(NC(=O)N3CC(O)C3)c2)c(F)c1`, for which the values for the IC50 in the test on BaF3 [1], with BaF3 [2] and in the test with BaF3 [3] were 720 nM, above 10000 nM and 610 nM, respectively.
Consider `Cc1ccc(-n2nc(C(=O)Nc3ccc(Oc4ccnc(NC(=O)N5CC(O)C5)c4)c(F)c3)c(C)cc2=O)cc1`, for which the IC50 is 2010 nM with BaF3 [1], above 10000 nM with BaF3 [2] and 1520 nM in the test with BaF3 [3].
On to `Cc1cc(=O)n(-c2ccc(Br)cc2)nc1C(=O)Nc1ccc(Oc2ccnc(NC(=O)N3CC(O)C3)c2)c(F)c1`, for which the IC50 with BaF3 [1] was 3070 nM; with BaF3 [2], above 10000 nM; with BaF3 [3], 1380 nM.
The matching figures for `Cc1cc(=O)n(-c2ccccc2F)nc1C(=O)Nc1ccc(Oc2ccnc(NC(=O)N3CC(O)C3)c2)c(F)c1`: 850 nM, above 10000 nM and 670 nM.
As to `Cc1cc(=O)n(-c2ccc(F)c(Cl)c2)nc1C(=O)Nc1ccc(Oc2ccnc(NC(=O)N3CC(O)C3)c2)c(F)c1`, the results for the IC50 in the test with BaF3 [1], in the test on BaF3 [2] and in the test with BaF3 [3] were 540 nM, above 10000 nM and 400 nM, respectively.
Consider `CCN(CC)CCNC(=O)c1c(C)[nH]c(/C=C2\C(=O)Nc3ccc(F)cc32)c1C` [SUNITINIB], for which the inhibition in vivo at 20 mg/kg in the test with MOLM-13 [4] amounted to 73.2%.
As for `Cc1cc(=O)n(-c2cc(Cl)ccc2F)nc1C(=O)Nc1ccc(Oc2ccnc(NC(=O)NC3CC3)c2)c(F)c1`, the IC50 with BaF3 [1] was 5020 nM; in the test with BaF3 [2], above 10000 nM; in the test on BaF3 [3] it was 7810 nM.
As to `COc1ccc(-n2nc(C(=O)Nc3ccc(Oc4ccnc(NC(=O)N5CC(O)C5)c4)c(F)c3)c(C)cc2=O)cc1`, the IC50 in the test with BaF3 [1] is 4210 nM; in the test with BaF3 [2], above 10000 nM; in the test with BaF3 [3] it was 1130 nM.
As for `Cc1cc(=O)n(-c2ccc(C#N)cc2)nc1C(=O)Nc1ccc(Oc2ccnc(NC(=O)N3CC(O)C3)c2)c(F)c1`, the IC50 with BaF3 [2] and in the test with BaF3 [3] was above 10000 nM in each case.
On to `Cc1cc(=O)n(-c2cc(Cl)c(F)c(Cl)c2)nc1C(=O)Nc1ccc(Oc2ccnc(NC(=O)N3CC(O)C3)c2)c(F)c1`, for which the values for the IC50 in the test with BaF3 [1], in the test with BaF3 [2] and in the test on BaF3 [3] were 1450 nM, above 10000 nM and 490 nM, respectively.
As for `Cc1cc(=O)n(-c2cccc(Cl)c2)nc1C(=O)Nc1ccc(Oc2ccnc(NC(=O)N3CC(O)C3)c2)c(F)c1`, the IC50 in the test with BaF3 [1] came out at 440 nM; in the test on BaF3 [2], 9200 nM; in the test on BaF3 [3], 350 nM.
On to `CCc1nc(C(N)=O)c(Nc2ccc(N3CCC(N4CCN(C)CC4)CC3)c(OC)c2)nc1NC1CCOCC1` [GILTERITINIB], for which the IC50 in the test on BaF3 [3] was determined as 130 nM.
On to `CNC(=O)c1cc(Oc2ccc(NC(=O)Nc3ccc(Cl)c(C(F)(F)F)c3)cc2)ccn1` [SORAFENIB], for which the Activity is reported as 35.4% in the test on MOLM-13 [5]; 62.9% with MOLM-13 [6]; 0% in the test with MOLM-13 [7]; 47% with MOLM-13 [9]; 0.66% in the test with MOLM-13 [10]; 26.7% with MOLM-13 [11]. The results for the IC50 in the test with BaF3 [1] and in the test with BaF3 [3] were 18 nM and 100 nM, respectively. For the same compound, the viability at 0.1 µM in the test with MOLM-13 [8] turned out to be 25.7%.
As for `Cc1cc(=O)n(-c2cc(Cl)ccc2F)nc1C(=O)Nc1ccc(Oc2ccnc(NC(=O)N3CCC(C)CC3)c2)c(F)c1`, the results for the IC50 in the test on BaF3 [1], in the test with BaF3 [2] and with BaF3 [3] were 5510 nM, above 10000 nM and 4160 nM, respectively.
On to `COc1cc(F)ccc1-n1nc(C(=O)Nc2ccc(Oc3ccnc(NC(=O)N4CC(O)C4)c3)c(F)c2)c(C)cc1=O`, for which the IC50 in the test with BaF3 [1] is 1480 nM; in the test on BaF3 [2] it was above 10000 nM; in the test with BaF3 [3], 850 nM.
For `Cc1cc(=O)n(-c2ccc(F)c(F)c2)nc1C(=O)Nc1ccc(Oc2ccnc(NC(=O)N3CC(O)C3)c2)c(F)c1`, the IC50 in the test on BaF3 [1] is 580 nM; with BaF3 [2], above 10000 nM; in the test on BaF3 [3], 470 nM.
The matching figures for `Cc1cc(=O)n(-c2ccc(F)cc2F)nc1C(=O)Nc1ccc(Oc2ccnc(NC(=O)N3CC(O)C3)c2)c(F)c1`: 1410 nM, above 10000 nM and 550 nM.
Take `Cc1cc(=O)n(-c2ccccc2Cl)nc1C(=O)Nc1ccc(Oc2ccnc(NC(=O)N3CC(O)C3)c2)c(F)c1`: the IC50 was 2960 nM in the test with BaF3 [1], above 10000 nM in the test with BaF3 [2] and 1870 nM in the test on BaF3 [3].
Turning to `Cc1cc(=O)n(-c2ccc(OC(F)(F)F)cc2)nc1C(=O)Nc1ccc(Oc2ccnc(NC(=O)N3CC(O)C3)c2)c(F)c1`, the IC50 in the test with BaF3 [2] is above 10000 nM; in the test on BaF3 [3] it was 3910 nM.
For `Cc1cc(=O)n(-c2ccccc2)nc1C(=O)Nc1ccc(Oc2ccnc(NC(=O)N3CC(O)C3)c2)c(F)c1`, the IC50 is 1160 nM in the test on BaF3 [1], above 10000 nM in the test on BaF3 [2] and 700 nM in the test on BaF3 [3].
The matching figures for `Cc1cc(=O)n(-c2cc(Cl)ccc2F)nc1C(=O)Nc1ccc(Oc2ccnc(NC(=O)NC3CCOCC3)c2)c(F)c1`: 2050 nM, above 10000 nM and 6300 nM.
Regarding `Cc1cc(=O)n(-c2ccc(Cl)c(F)c2)nc1C(=O)Nc1ccc(Oc2ccnc(NC(=O)N3CC(O)C3)c2)c(F)c1`, the results for the IC50 in the test with BaF3 [1], with BaF3 [2] and in the test with BaF3 [3] were 790 nM, above 10000 nM and 560 nM, respectively.
On to `Cc1cc(F)ccc1-n1nc(C(=O)Nc2ccc(Oc3ccnc(NC(=O)N4CC(O)C4)c3)c(F)c2)c(C)cc1=O`, for which the values for the IC50 in the test on BaF3 [1], in the test on BaF3 [2] and in the test on BaF3 [3] were 1250 nM, above 10000 nM and 770 nM, respectively.
For `Cc1cc(=O)n(-c2ccc(C(F)(F)F)cc2)nc1C(=O)Nc1ccc(Oc2ccnc(NC(=O)N3CC(O)C3)c2)c(F)c1`, the IC50 is 1720 nM in the test on BaF3 [1], above 10000 nM with BaF3 [2] and 990 nM with BaF3 [3].
For `COc1cc2nccc(Oc3ccc(NC(=O)N/N=C/c4cn(-c5ccccc5OC)nn4)cc3)c2cc1OC`, the IC50 was found to be 8070 nM in the test with BaF3 [1] and 5820 nM with BaF3 [3].
Consider `Cc1cc(=O)n(-c2cc(Cl)ccc2F)nc1C(=O)Nc1ccc(Oc2ccnc(NC(=O)N3CCC(N4CCN(C)CC4)CC3)c2)c(F)c1`, for which the IC50 was 1190 nM with BaF3 [1], 8500 nM in the test on BaF3 [2] and 800 nM in the test on BaF3 [3].
The matching figures for `Cc1cc(-n2nc(C(=O)Nc3ccc(Oc4ccnc(NC(=O)N5CC(O)C5)c4)c(F)c3)c(C)cc2=O)ccc1F`: 700 nM, above 10000 nM and 630 nM.
On to `Cc1cc(=O)n(-c2cc(Cl)ccc2F)nc1C(=O)Nc1ccc(Oc2ccnc(NC(=O)N3CCC(O)C3)c2)c(F)c1` (stereo not given), for which the IC50 is 1290 nM with BaF3 [1], above 10000 nM in the test with BaF3 [2] and 600 nM in the test on BaF3 [3].
Take `Cc1cc(=O)n(-c2cc(F)ccc2Cl)nc1C(=O)Nc1ccc(Oc2ccnc(NC(=O)N3CC(O)C3)c2)c(F)c1`: the figures for the IC50 in the test with BaF3 [1], in the test on BaF3 [2] and in the test on BaF3 [3] were 5320 nM, above 10000 nM and 1880 nM, respectively.
As to `Cc1cc(=O)n(-c2ccc(I)cc2)nc1C(=O)Nc1ccc(Oc2ccnc(NC(=O)N3CC(O)C3)c2)c(F)c1`, the IC50 in the test with BaF3 [2] is above 10000 nM; in the test on BaF3 [3], 4300 nM.
With `Cc1cc(=O)n(-c2cc(Cl)ccc2F)nc1C(=O)Nc1ccc(Oc2ccnc(NC(=O)N3CCC(C)(O)C3)c2)c(F)c1` (stereo not given), the IC50 amounted to 1010 nM in the test on BaF3 [1], 7800 nM in the test on BaF3 [2] and 610 nM with BaF3 [3].
`Cc1cc(=O)n(-c2cc(Cl)ccc2F)nc1C(=O)Nc1ccc(Oc2ccnc(NC(=O)N3CCC(C(C)(C)O)CC3)c2)c(F)c1`: the concentration for half-maximal inhibition (IC50) with BaF3 [1] was 2440 nM; in the test with BaF3 [2], above 10000 nM; in the test with BaF3 [3] it was 1670 nM.
In the case of `Cc1cc(=O)n(-c2ccc(S(C)(=O)=O)cc2)nc1C(=O)Nc1ccc(Oc2ccnc(NC(=O)N3CC(O)C3)c2)c(F)c1`, the IC50 in the test on BaF3 [2] and in the test on BaF3 [3] was above 10000 nM throughout.
On to `COC1CCN(C(=O)Nc2cc(Oc3ccc(NC(=O)c4nn(-c5cc(Cl)ccc5F)c(=O)cc4C)cc3F)ccn2)C1` (stereo not given), for which the IC50 in the test with BaF3 [1] was 1120 nM; with BaF3 [2], above 10000 nM; in the test on BaF3 [3], 520 nM.
As to `Cc1cc(=O)n(-c2cc(F)cc(Cl)c2)nc1C(=O)Nc1ccc(Oc2ccnc(NC(=O)N3CC(O)C3)c2)c(F)c1`, the IC50 in the test with BaF3 [1] was 1040 nM; in the test on BaF3 [2], above 10000 nM; in the test with BaF3 [3], 730 nM.
With `Cc1cc(=O)n(-c2ccc(F)cc2)nc1C(=O)Nc1ccc(Oc2ccnc(NC(=O)N3CC(O)C3)c2)c(F)c1`, the IC50 was 770 nM with BaF3 [1], above 10000 nM with BaF3 [2] and 490 nM with BaF3 [3].

For the origin of these results see ChEMBL document CHEMBL6109114, “Design, synthesis, and biological evaluation of 4-(2-fluorophenoxy)pyridine derivatives as novel FLT3-ITD inhibitors” (Eur J Med Chem, 2025).
